# Experimental data reported in patent publication US4328215A, “Method of reducing or avoiding the mutagenic activity of drugs” (The Johns Hopkins University, priority 1977, dated 1982).
# Like-named read-outs stand apart in the source and are kept apart here. Where a SMILES comes first, the peptide text is derived from it. Bridges are numbered along the chain shown (N, C = ends). [ ]: non-standard residue; d: D form. The star is where a group is joined. Ileψ(thiazoline)Cys = CC[C@H](C)[C@H](N)C1=N[C@H](C(=O)*)CS1; dOrn = NCCC[C@@H](N)C(=O)O
# Experiments:
# [1] = Mutagenic metabolite of oxamniquine in urine of mice; type: in vivo; settings: mixture of erythromycin, bacitracin and succinyl sulfathiazole
# Source text: Ir also is used, though to a lesser extent, in Africa and the Mid-east for the treatment of schistosomiasis mansoni.
# [2] = mice; oxamniquine alone; cited from earlier work
# [3] = monkeys; oxamniquine alone; cited from earlier work
# [4] = system: intestinal bacteria; test: Effect on intestinal bacterial flora of mice; type: in vivo
# Procedure: […] Homogenates of these organs were made with 10 ml nutrient broth (Difco) and serial dilutions were plated on nutrient agar plates. Obligatory anaerobic bacteria were counted in the same manner except that the organs were homogenized in thioglycolate (Difco) medium and the agar plates were incubated in anaerobic jars. The plates were counted after incubation for 24 hours at 37° C. There were no significant differences in counts when the incubation time was extended for 48 hours. Six mice were used for each time interval.
# [5] = system: S. typhimurium TA 100
# [6] = ampicillin administered; cited from earlier work
smiles,measurement,setting,value
CC(C)NCC1CCc2cc(CO)c([N+](=O)[O-])cc2N1 (stereo not shown) [oxamniquine],Appearance of the mutagenic metabolite with coadministered antibacterial agents,[1],completely eliminates the appearance of the mutagenic metabolite
same,Mutagenic metabolite in urine,[2],gives rise to the appearance of a mutagenic metabolite in the urine
same,Mutagenic metabolite in urine,[3],gives rise to the appearance of a mutagenic metabolite in the urine
CC[C@H]1OC(=O)[C@H](C)[C@@H](O[C@H]2C[C@@](C)(OC)[C@@H](O)[C@H](C)O2)[C@H](C)[C@@H](O[C@@H]2O[C@H](C)C[C@H](N(C)C)[C@H]2O)[C@](C)(O)C[C@@H](C)C(=O)[C@H](C)[C@@H](O)[C@]1(C)O [Erythromycin],Number of aerobes in the large intestine,"[4]; erythromycin base 100 mg/kg single oral dose, large intestine, aerobes","little, if any, change"
same,Number of anaerobes in the large intestine,"[4]; erythromycin base 100 mg/kg single oral dose, large intestine, anaerobes","little, if any, change"
same,Total number of aerobic bacteria in the small intestine,"[4]; erythromycin base 100 mg/kg single oral dose, small intestine, aerobes","only a moderate reduction, of relatively short duration"
same,Anaerobic bacteria in the small intestine,"[4]; erythromycin base 100 mg/kg single oral dose, small intestine, anaerobes",reduced to an even lesser extent than were aerobes
same,"Host mediated assay, revertants per 10^8 bacteria, controls (no CGP 4540)","[5]; antibiotic alone, 100 mg/kg oral, mice",65 (±4) revertants per 10^8 bacteria
C[N+]([O-])=NCO[C@@H]1O[C@H](CO)[C@@H](O)[C@H](O)[C@H]1O [cycasin],Formation of the aglycone after administration of ampicillin,[6],prevented
CC[C@H](C)[C@H](N)C1=N[C@H](C(=O)N[C@@H](CC(C)C)C(=O)N[C@H](CCC(=O)O)C(=O)N[C@H](C(=O)N[C@H]2CCCCNC(=O)[C@H](CC(N)=O)NC(=O)[C@@H](CC(=O)O)NC(=O)[C@H](Cc3cnc[nH]3)NC(=O)[C@@H](Cc3ccccc3)NC(=O)[C@H]([C@@H](C)CC)NC(=O)[C@@H](CCCN)NC2=O)[C@@H](C)CC)CS1 [Bacitracin] ({Ileψ(thiazoline)Cys}-L[dE]IK[dOrn]I[dF]H[dD]N; lactam 4-C),"Host-mediated assay, revertants per 10^8 bacteria, controls (no CGP 4540)","[5]; bacitracin alone, 220 mg/kg, mice",64(±9) revertants per 10^8 bacteria
same,"Host-mediated assay, revertants per 10^8 bacteria, controls (no CGP 4540)","[5]; bacitracin alone, 440 mg/kg, mice",71(±5) revertants per 10^8 bacteria
O=C(O)CCC(=O)Nc1ccc(S(=O)(=O)Nc2nccs2)cc1 [Succinylsulfathiazole],Bacterial flora of the host's intestines,"[4]; 1 g/kg once daily for 3 successive days, oral",reduces the bacterial flora
same,"Host-mediated assay, revertants per 10^8 bacteria, controls (no CGP 4540)",[5]; in vivo,62(±5) revertants per 10^8 bacteria
